Measured values: paper PMC6435542 (Bioscience Reports, 2018)

Target: T1, CFTR-associated ligand (CAL) PDZ domain (Homo sapiens, UniProt Q9HD26)
T1 construct: gene GOPC; CAL PDZ domain (CALP; UniProt Q9HD26-2)
Assay: MALDI-TOF MS of covalent adduct; no effect on peptide affinity by FP
Format: binding

**Q.** CCN1C(=O)C=CC1=O [EM, N-ethyl-maleimide] was tested. Which EM did it give?
**A.** The EM was 90–92 % covalent modification.
